Results as given in ChEMBL document CHEMBL1133508, “Syntheses and antimalarial activities of 10-substituted deoxoartemisinins” (2000).

Tests used:
Plasmodium falciparum [1] = experiment: In vitro activity against chloroquine-resistant, mefloquine-sensitive Plasmodium falciparum W2; assay type: functional
Plasmodium falciparum [2] = experiment: In vitro relative activity against chloroquine-sensitive, mefloquine-resistant Plasmodium falciparum D6; assay type: functional

Compound	Relative activity (Plasmodium falciparum [1])	Relative activity (Plasmodium falciparum [2])
C[C@H]1[C@@H](C2C=CC(=O)O2)O[C@@H]2O[C@]3(C)CC[C@H]4[C@H](C)CC[C@@H]1[C@@]24OO3 (some centres not stated)	0.18	0.77
C[C@H]1[C@@H](C[C@@H](O)C(F)(F)F)O[C@@H]2OC3(C)CC[C@H]4[C@H](C)CC[C@@H]1[C@@]24OO3 (single isomer, unassigned)	2.4	3.1
C[C@H]1[C@@H](C[C@@H](O)C(C)(C)C)O[C@@H]2OC3(C)CC[C@H]4[C@H](C)CC[C@@H]1[C@@]24OO3 (single isomer, unassigned)	1	1.6
CC(C)[C@H](O)C[C@H]1O[C@@H]2OC3(C)CC[C@H]4[C@H](C)CC[C@@H]([C@H]1C)[C@@]24OO3 (single isomer, unassigned)	2.3	1.4
CC[C@H](O)C[C@H]1O[C@@H]2OC3(C)CC[C@H]4[C@H](C)CC[C@@H]([C@H]1C)[C@@]24OO3 (single isomer, unassigned)	3.6	2.2
C[C@H]1[C@@H](C[C@H](C)O)O[C@@H]2OC3(C)CC[C@H]4[C@H](C)CC[C@@H]1[C@@]24OO3 (single isomer, unassigned)	1	0.98
C[C@H]1[C@@H](C[C@H](O)C(F)(F)F)O[C@@H]2OC3(C)CC[C@H]4[C@H](C)CC[C@@H]1[C@@]24OO3 (single isomer, unassigned)	3.1	2.5
C[C@H]1[C@@H](C[C@@H](C)O)O[C@@H]2OC3(C)CC[C@H]4[C@H](C)CC[C@@H]1[C@@]24OO3 (single isomer, unassigned)	1.7	1.7
CC(C)[C@@H](O)C[C@H]1O[C@@H]2OC3(C)CC[C@H]4[C@H](C)CC[C@@H]([C@H]1C)[C@@]24OO3 (single isomer, unassigned)	1.7	2.2
CC[C@@H](O)C[C@H]1O[C@@H]2OC3(C)CC[C@H]4[C@H](C)CC[C@@H]([C@H]1C)[C@@]24OO3 (single isomer, unassigned)	4.8	5.8
C[C@H]1[C@@H](C[C@H](O)C(C)(C)C)O[C@@H]2OC3(C)CC[C@H]4[C@H](C)CC[C@@H]1[C@@]24OO3 (single isomer, unassigned)	5.4	6.8
C[C@H]1[C@@H](CC=O)O[C@@H]2OC3(C)CC[C@H]4[C@H](C)CC[C@@H]1[C@@]24OO3 (single isomer, unassigned)	1.8	3.5
C[C@H]1[C@@H](CC(=O)c2ccccc2)O[C@@H]2OC3(C)CC[C@H]4[C@H](C)CC[C@@H]1[C@@]24OO3 (single isomer, unassigned)	2.5	0.16
C[C@H]1[C@@H](C2CCCC(=O)O2)O[C@@H]2OC3(C)CC[C@H]4[C@H](C)CC[C@@H]1[C@@]24OO3 (single isomer, unassigned)	2.2	1.4
CCC(=O)C[C@H]1O[C@@H]2OC3(C)CC[C@H]4[C@H](C)CC[C@@H]([C@H]1C)[C@@]24OO3 (single isomer, unassigned)	1.3	1
CCOC(=O)/C=C/C[C@H]1O[C@@H]2OC3(C)CC[C@H]4[C@H](C)CC[C@@H]([C@H]1C)[C@@]24OO3 (single isomer, unassigned)	1.4	1.1
CC(C)C(=O)C[C@H]1O[C@@H]2OC3(C)CC[C@H]4[C@H](C)CC[C@@H]([C@H]1C)[C@@]24OO3 (single isomer, unassigned)	2.1	1.8
C[C@H]1[C@@H](CC(=O)C(C)(C)C)O[C@@H]2OC3(C)CC[C@H]4[C@H](C)CC[C@@H]1[C@@]24OO3 (single isomer, unassigned)	2.1	1.6
C[C@H]1[C@@H](C#N)O[C@@H]2OC3(C)CC[C@H]4[C@H](C)CC[C@@H]1[C@@]24OO3 (single isomer, unassigned)	1.1	1.5
C[C@H]1[C@@H](C2CCCC2=O)O[C@@H]2OC3(C)CC[C@H]4[C@H](C)CC[C@@H]1[C@@]24OO3 (single isomer, unassigned)	1.6	0.91
CC(=O)C[C@H]1O[C@@H]2OC3(C)CC[C@H]4[C@H](C)CC[C@@H]([C@H]1C)[C@@]24OO3 (single isomer, unassigned)	1.7	2.6
